Counter-ions that a name gives are not always drawn. Like-named read-outs stand apart in the source and are kept apart here.
Assays:
human IBAT = biological target: T1, human IBAT (Homo sapiens, UniProt Q12908); experiment: In vitro assay of IBAT-mediated uptake of [14C]-taurocholate (TC) in H14 cells; type: cell-based
T1 construct: expressed in transfected cells; host or cells: Baby hamster kidney (BHK) cells, clone H14
T1 sequence (Q12908 1-348): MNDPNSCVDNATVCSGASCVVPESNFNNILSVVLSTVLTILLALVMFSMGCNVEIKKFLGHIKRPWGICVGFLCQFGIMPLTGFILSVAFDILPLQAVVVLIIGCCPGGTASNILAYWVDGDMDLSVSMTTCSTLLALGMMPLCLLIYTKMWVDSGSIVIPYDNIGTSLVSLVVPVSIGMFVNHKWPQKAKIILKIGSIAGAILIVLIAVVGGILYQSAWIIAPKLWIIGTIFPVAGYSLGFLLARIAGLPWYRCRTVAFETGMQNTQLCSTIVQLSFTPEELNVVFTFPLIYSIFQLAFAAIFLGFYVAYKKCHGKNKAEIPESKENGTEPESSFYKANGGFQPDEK
In short: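 BHK cells stably expressing human IBAT (H14) were incubated 2 h at 37° C with compound and 3 μM final [14C]-taurocholate in DMEM (4.5 g/L glucose) plus 0.2% fatty acid-free BSA. After cold PBS washes, cell-associated radioactivity was measured by scintillation counting.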

H14 cells = experiment: In vitro assay of uptake of [14C]-alanine; type: cell-based, hamster; details: Mesocricetus auratus
Description: Baby hamster kidney cells (BHK) transfected with the cDNA of human IBAT (H14 cells) are seeded at 60,000 cells/well in 96 well Top-Count tissue culture plates for assays run within in 24 hours of seeding, 30,000 cells/well for assays run within 48 hours, and 10,000 cells/well for assays run within 72 hours.
On the day of assay, the cell monolayer is gently washed once with 100 μl assay buffer (Dulbecco's Modified Eagle's medium with 4.5 g/L glucose+0.2% (w/v) fatty acid free bovine serum albumin-(FAF)BSA). To each well 50 μl of a two-fold concentrate of test compound in assay buffer is added along with 50 μl of 6 μM [^14C]-taurocholate in assay buffer (final concentration of 3 μM [^14C]-taurocholate). The cell culture plates are incubated 2 hours at 37° C. prior to gently washing each well twice with 100 μl 4° C. Dulbecco's phosphate-buffered saline (PBS) containing 0.2% (w/v) (FAF)BSA. The wells are then gently washed once with 100 μl 4° C. PBS without (FAF)BSA. To each 200 μl of liquid scintillation counting fluid is added, the plates are heat sealed and shaken for 30 minutes at room temperature prior to measuring the amount of radioactivity in each well on a Packard Top-Count instrument.
In Vitro Assay of Compounds that Inhibit Uptake of [^14C3-Alanine
The alanine uptake assay is performed in an identical fashion to the taurocholate assay, with the exception that labeled alanine is substituted for the labeled taurocholate.

fecal bile acid (FBA) = experiment: Rat gavage assay (fecal bile acid increase); type: in vivo
Description: Male Wister rats (275-300 g) are administered IBAT inhibitors using an oral gavage procedure. Drug or vehicle (0.2% Tween 80 in water) is administered once a day (9:00-10:0 a.m.) for 4 days at varying dosages in a final volume of 2 mL per kilogram of body weight. Total fecal samples are collected during the final 48 hours of the treatment period and analyzed for bile acid content using an enzymatic assay as described below. Compound efficacy is determined by comparison of the increase in fecal bile acid (FBA) concentration in treated rats to the mean FBA concentration of rats in the vehicle group.
Measurement of Fecal Bile Acid Concentration (FBA)
Total fecal output from individually housed hamsters was collected for 24 or 48 hours, dried under a stream of nitrogen, pulverized and weighed. Approximately 0.1 gram was weighed out and extracted into an organic solvent (butanol/water). Following separation and drying, the residue was dissolved in methanol and the amount of bile acid present was measured enzymatically using the 3α-hydroxysteroid steroid dehydrogenase reaction with bile acids to reduce NAD. (Reference: Mashige, F., et al. (1981) Clin. Chem. 27, 1352).

[1] = H14 cells, Table 5, read-out: IC50 uM (In vitro Taurocholate Cell Uptake)
[2] = In Vitro Taurocholate Uptake, Table 10, read-out: Human TC IC50

SMILES | IC50 (human IBAT; [2]) [µM] | IC50 (human IBAT; [1]) [µM] | inhibition at 100 µM (H14 cells) [%] | inhibition at 20 µM (H14 cells; 20 μM) [%] | Delta (micromoles fecal bile acid per day) (fecal bile acid (FBA); dose 2 mg/kg/day) | Delta (micromoles fecal bile acid per day) (fecal bile acid (FBA); dose .016 mg/kg/day) | Delta (micromoles fecal bile acid per day) (fecal bile acid (FBA); dose .08 mg/kg/day) | Delta (micromoles fecal bile acid per day) (fecal bile acid (FBA); dose .4 mg/kg/day) | Delta (micromoles fecal bile acid per day) (fecal bile acid (FBA); dose 5 mg/kg/day) | Delta (micromoles fecal bile acid per day) (fecal bile acid (FBA); dose .04 mg/kg/day) | Delta (micromoles fecal bile acid per day) (fecal bile acid (FBA); dose .2 mg/kg/day)
O=S1(=O)CC2(CCCCC2)[C@@H](O)[C@@H](c2ccccc2)c2ccccc21 (relative stereo) [Example 60, cis-4-Hydroxy-5-phenyl-2,3,4,5-tetrahydro spiro(benzothiepine-3,1′-cyclohexane)-1,1-dioxide] | – | 9 | 59 | – | – | – | – | – | – | – | –
CCCCC1(CC)C=C(c2ccccc2)c2ccccc2S(=O)(=O)C1 (stereo not shown) [Example 7, 3-Butyl-3-ethyl-5-phenyl-2,3-dihydrobenzothiepine-1,1-dioxide] | – | 50 | 49.3 | – | – | – | – | – | – | – | –
CCCC[C@]1(CC)CS(=O)(=O)c2cc(O)ccc2[C@H](c2ccccc2)[C@@H]1O [Example 27, (3α,4α,5α) 3-Butyl-3-ethyl-4,8-dihydroxy-5-phenyl-2,3,4,5-tetrahydrobenzothiepine-1,1-dioxide] | – | – | – | 7 | – | – | – | – | – | – | –
CCCCC1(CCCC)CS(=O)(=O)c2ccc(N(C)C)cc2[C@@H](c2ccc(OCCC[N+]34CCN(CC3)CC4)cc2)[C@H]1O [Example 1406, (4R-cis)-1-[3-[4-[3,3-Dibutyl-7-(dimethylamino)-2,3,4,5-tetrahydro-4-hydroxy-1,1-dioxido-1-benzothiepin-5-yl]phenoxy]propyl]-4-aza-1-azoniabicyclo[2.2.2]octane, Methanesulfonate (Salt)] | 0.004 | – | – | – | 47.8 micromoles fecal bile acid per day | −8.5 micromoles fecal bile acid per day | 12.8 micromoles fecal bile acid per day | 31.6 micromoles fecal bile acid per day | – | – | –
CCCCC1(CCCC)CS(=O)(=O)c2ccc(N(C)C)cc2[C@@H](c2ccc(OCCCC[N+](CC)(CC)CC)cc2)[C@H]1O.CS(=O)(=O)[O-] [Example 1410, (4R-cis)-4-[4-[3,3-Dibutyl-7-(dimethylamino)-2,3,4,5-tetrahydro-4-hydroxy-1,1-dioxido-1-benzothiepin-5-yl]phenoxy]-N,N,N-triethyl-1-butanaminium] | 0.002 | – | – | – | 26.2 micromoles fecal bile acid per day | 20.4 micromoles fecal bile acid per day | 18.5 micromoles fecal bile acid per day | 36.5 micromoles fecal bile acid per day | – | – | –
CCCCC1(CCCC)CS(=O)(=O)c2ccc(N(C)C)cc2[C@@H](c2ccc(OCCCC[n+]3cccc(O)c3)cc2)[C@H]1O.CS(=O)(=O)[O-] [Example 1411, (4R-cis)-1-[4-[4-[3,3-Dibutyl-7-(dimethylamino)-2,3,4,5-tetrahydro-4-hydroxy-1,1-dioxido-1-benzothiepin-5-yl]phenoxy]butyl]-3-hydroxypyridinium, methanesulfonate (Salt)] | 0.002 | – | – | – | 63.4 micromoles fecal bile acid per day | 22.3 micromoles fecal bile acid per day | 33 micromoles fecal bile acid per day | 54.1 micromoles fecal bile acid per day | – | – | –
CCCCC1(CCCC)CS(=O)(=O)c2ccc(N(C)C)cc2[C@@H](c2ccc(OCCCCCN(CC)CC)cc2)[C@H]1O [Example 1414, (4R-cis)-3,3-Dibutyl-5-[4-[[5-(diethylamino)pentyl]oxy]phenyl]-7-(dimethylamino)-2,3,4,5-tetrahydro-1-benzothiepin-4-ol 1,1-dioxide] | 0.015 | – | – | – | 41.5 micromoles fecal bile acid per day | 3.8 micromoles fecal bile acid per day | 29 micromoles fecal bile acid per day | 33.7 micromoles fecal bile acid per day | 45.2 micromoles fecal bile acid per day | 14.3 micromoles fecal bile acid per day | 39.5 micromoles fecal bile acid per day

Further lines, with some results ahead:

IC50 (human IBAT; [2]) [µM] | SMILES | IC50 (human IBAT; [1]) [µM] | inhibition at 100 µM (H14 cells) [%] | inhibition at 20 µM (H14 cells; 20 μM) [%] | Delta (micromoles fecal bile acid per day) (fecal bile acid (FBA); dose 2 mg/kg/day) | Delta (micromoles fecal bile acid per day) (fecal bile acid (FBA); dose .016 mg/kg/day) | Delta (micromoles fecal bile acid per day) (fecal bile acid (FBA); dose .08 mg/kg/day) | Delta (micromoles fecal bile acid per day) (fecal bile acid (FBA); dose .4 mg/kg/day) | Delta (micromoles fecal bile acid per day) (fecal bile acid (FBA); dose 5 mg/kg/day) | Delta (micromoles fecal bile acid per day) (fecal bile acid (FBA); dose .04 mg/kg/day) | Delta (micromoles fecal bile acid per day) (fecal bile acid (FBA); dose .2 mg/kg/day)
0.002 | CCCCC1(CCCC)CS(=O)(=O)c2ccc(N(C)C)cc2[C@@H](c2ccc(OCCCCCN(CC(=O)O)CC(=O)O)cc2)[C@H]1O [Example 1415, (4R-cis)-N-(Carboxymethyl)-N-[5-[4-[3,3-dibutyl-7-(dimethylamino)-2,3,4,5-tetrahydro-4-hydroxy-1,1-dioxido-1-benzothiepin-5-yl]phenoxy]pentyl]glycine] | – | – | – | 48.9 micromoles fecal bile acid per day | 12.7 micromoles fecal bile acid per day | 27.1 micromoles fecal bile acid per day | 25.7 micromoles fecal bile acid per day | 59.9 micromoles fecal bile acid per day | 23.9 micromoles fecal bile acid per day | 48.1 micromoles fecal bile acid per day
0.014 | CCCCC1(CCCC)CS(=O)(=O)c2ccc(N(C)C)cc2[C@@H](c2ccc(OCCCCCN(CCN(CC)CC)CCN(CC)CC)cc2)[C@H]1O [Example 1416, (4R-cis)-5-[4-[[5-[bis[2-(Diethylamino)ethyl]amino]pentyl]oxy]phenyl]-3,3-dibutyl-7-(dimethylamino)-2,3,4,5-tetrahydro-1-benzothiepin-4-ol 1,1-dioxide] | – | – | – | 46.1 micromoles fecal bile acid per day | −7.8 micromoles fecal bile acid per day | 25 micromoles fecal bile acid per day | 21.9 micromoles fecal bile acid per day | – | – | –
0.002 | CCCCC1(CCCC)CS(=O)(=O)c2ccc(N(C)C)cc2[C@@H](c2ccc(OCCCCCNCCc3cnc[nH]3)cc2)[C@H]1O [Example 1417, (4R-cis)-3,3-Dibutyl-7-(dimethylamino)-2,3,4,5-tetrahydro-5-[4-[[5-[[2-(1H-imidazol-4-yl)ethyl]amino]pentyl]oxy]phenyl]-1-benzothiepin-4-ol 1,1-dioxide] | – | – | – | 51.4 micromoles fecal bile acid per day | 29.3 micromoles fecal bile acid per day | 39.6 micromoles fecal bile acid per day | 42 micromoles fecal bile acid per day | – | – | –
0.003 | CCCCC1(CCCC)CS(=O)(=O)c2ccc(N(C)C)cc2[C@@H](c2ccc(OCCCCCNCC(=O)O)cc2)[C@H]1O [Example 1423, (4R-cis)-N-[5-[4-[3,3-Dibutyl-7-(dimethylamino)-2,3,4,5-tetrahydro-4-hydroxy-1,1-dioxido-1-benzothiepin-5-yl]phenoxy]pentyl]glycine] | – | – | – | 56.5 micromoles fecal bile acid per day | 14.4 micromoles fecal bile acid per day | 35.3 micromoles fecal bile acid per day | 69.3 micromoles fecal bile acid per day | – | – | –
0.002 | CCCCC1(CCCC)CS(=O)(=O)c2ccc(N(C)C)cc2[C@@H](c2ccc(OCc3ccc(C[n+]4ccccc4)cc3)cc2)[C@H]1O.[Cl-] [Example 1425, (4R-cis)-1-[[4-[[4-[3,3-Dibutyl-7-(dimethylamino)-2,3,4,5-tetrahydro-4-hydroxy-1,1-dioxido-1-benzothiepin-5-yl]phenoxy]methyl]phenyl]methyl]-pyridinium chloride] | – | – | – | – | – | – | – | 91.8 micromoles fecal bile acid per day | 66.4 micromoles fecal bile acid per day | 100. micromoles fecal bile acid per day
